Measured values published in EP0506011A1, “Tetrazoleacetic acid derivatives having aldose reductase inhibitory activity” (Wakamoto Pharmaceutical Co., Ltd., priority 1991, dated 1992).
pIC50: −log10 of the molar value.

Target: T1, aldose reductase (Rattus norvegicus, UniProt P07943)
T1 construct: The lenses were homogenized in 3 volumes of 135 mM sodium potassium phosphate buffer (pH 7.0) and centrifuged; from tissue; host or cells: crystalline lenses of six-week-old male SD rats
Experiment: Test for Examining Aldose Reductase Inhibitory Effect (rat lens enzyme, DL-glyceraldehyde substrate, absorbance at 340 nm)
Format: biochemical
Details: aldose reductase solution from crystalline lenses of SD rats; DL-glyceraldehyde 10 mM; 30°C for 5 minutes; pH 5.2; compound at 10 ⁻⁶ M, 10⁻⁷ M or 10 ⁻⁸ M; read-out: IC₅₀
Description: Six-week-old male SD rats were anesthetized with ether and killed. Then their crystalline lenses were immediately removed and stored at -80 °C . […] The resulting supernatant was dialyzed overnight against 0.05 M sodium chloride solution to obtain an aldose reductase solution. All operations were conducted at 4 °C and the enzyme solution was stored at -80°C .
More specifically, 0.1 ml of DL-glyceraldehyde (final concentration: 10 mM) was added to 0.9 ml of 100 mM sodium potassium phosphate buffer (pH 5.2) which contained lithium sulfate (final concentration: 400 mM), reduced nicotinamide adenine dinucleotide phosphate (final concentration: 0.15 mM), the enzyme solution, and the compound to be evaluated (final concentration: 10 ⁻⁶ M, 10⁻⁷ M or 10 ⁻⁸ M), and then the reaction was conducted at 30°C for 5 minutes. During the reaction, the change in the absorbance at 340 nm with time was monitored.
The maximum reducing rate of the absorbance (U) during the reaction was determined. By subtracting, from this value, the maximum reducing rate (U₀) at 340 nm of the reaction solution before the addition of the substrate (DL-glyceraldehyde), the reaction rate (V = U - U₀) was calculated as a true reaction rate in the presence of the compound to be tested. The same procedure was repeated except for the absence of the compound to be tested. A true reaction rate (V₀) in case the enzyme was not inhibited was calculated (V₀ = U¹ - U₀¹). The aldose reductase inhibitory activity of the test compounds was determined according to the following formula: Rate of Inhibition (%) = (V₀ - V)/V₀ x 100 [formula]

SMILES	pIC50
Cc1ccc2cc(-c3nnnn3CC(=O)O)sc2c1 [Example 2-8, [5-(6-Methyl-2-benzothienyl)tetrazol-1-yl]acetic acid]	7.74
COc1ccc2sc(-c3nnnn3CC(=O)O)cc2c1 [Example 2-10, [5-(5-Methoxy-2-benzothienyl)tetrazol-1-yl]acetic acid]	7.55
COc1ccc2cc(-c3nnnn3CC(=O)O)sc2c1 [Example 2-11, [5-(6-Methoxy-2-benzothienyl)tetrazol-1-yl]acetic acid]	7.68
CCCCOc1ccc2cc(-c3nnnn3CC(=O)O)sc2c1 [Example 2-12, [5-(6-Butoxy-2-benzothienyl)tetrazol-1-yl]acetic acid]	7.62
CC(C)c1ccc2cc(-c3nnnn3CC(=O)O)sc2c1 [Example 2-13, [5-(6-Isopropyl-2-benzothienyl)tetrazol-1-yl]acetic acid]	7.74
COc1cc2cc(-c3nnnn3CC(=O)O)sc2c(OC)c1OC [Example 2-14, [5-(5,6,7-Trimethoxy-2-benzothienyl)tetrazol-1-yl]acetic acid]	7.16
O=C(O)Cn1nnnc1-c1cc2ccccc2o1 [Example 2-15, [5-(2-Benzofuryl)tetrazol-1-yl]acetic acid]	7.34
Cc1c(-c2nnnn2CC(=O)O)oc2ccccc12 [Example 2-16, [5-(3-Methyl-2-Benzofuryl)tetrazol-1-yl]acetic acid]	7.17
COc1ccc2c(C)c(-c3nnnn3CC(=O)O)oc2c1 [Example 2-17, [5-(6-Methoxy-3-methyl-2-benzofuryl)tetrazol-1-yl]acetic acid]	6.80

Next, values leading:

pIC50	SMILES
7.62	O=C(O)Cn1nnnc1-c1cc2ccccc2s1 [Example 2-1, [5-(2-Benzothienyl)tetrazol-1-yl]acetic acid]
7.72	O=C(O)Cn1nnnc1-c1csc2ccccc12 [Example 2-2, [5-(3-Benzothienyl)tetrazol-1-yl]acetic acid]
7.59	O=C(O)Cn1nnnc1-c1cccc2sccc12 [Example 2-3, [5-(4-Benzothienyl)tetrazol-1-yl]acetic acid]
7.47	O=C(O)Cn1nnnc1-c1ccc2ccsc2c1 [Example 2-4, [5-(6-Benzothienyl)tetrazol-1-yl]acetic acid]
7.49	Cc1c(-c2nnnn2CC(=O)O)sc2ccccc12 [Example 2-5, [5-(3-Methyl-2-benzothienyl)tetrazol-1-yl]acetic acid]
7.46	O=C(O)Cn1nnnc1-c1sc2ccccc2c1Cl [Example 2-6, [5-(3-Chloro-2-benzothienyl)tetrazol-1-yl]acetic acid]
7.66	Cc1cccc2sc(-c3nnnn3CC(=O)O)cc12 [Example 2-7, [5-(4-Methyl-2-benzothienyl)tetrazol-1-yl]acetic acid]
7.70	COc1cccc2sc(-c3nnnn3CC(=O)O)cc12 [Example 2-9, [5-(4-Methoxy-2-benzothienyl)tetrazol-1-yl]acetic acid]
